Measured values taken from patent publication EP1595878A1, “INDOLE DERIVATIVES WITH APOPTOSIS INDUCING ACTIVITY” (Zentaris GmbH, priority 2004, dated 2005).
≈ marks a conversion by molar mass, not a printed value. Where two headings read alike, the source gives them in different places.

How the values were obtained:
Rindertubulin = assay: Inhibition of tubulin polymerisation in vitro; type: biochemical, Rind
Source text: Die Substanzen 1, 4, 9, 11, 12, 13 und 15 wurden in einem in-vitro Test auf Hemmung der Polymerisation von Rindertubulin getestet (D.M. Bollag et al. Cancer Res. 1995, 55, 2325-2333). In diesem Test wird durch Zyklen von Polymerisation und Depolymerisation aufgereinigtes Tubulin eingesetzt, welches durch Zugabe von GTP und Erwärmung zur Polymerisation gebracht wird. In Tabelle 3 sind die EC50 Werte der Polymerisationshemmung von Tubulin mit 30% assoziierten Proteinen (MAPs) angegeben.

KB/HeLa Zellen = assay: Cell cycle analysis (G2/M arrest); type: cell-based; settings: Homo sapiens, read-out: EC50 in nM (50% cells in G2/M)
Source text: Der Zellzyklus umfasst die Entwicklung der Zelle von einer Zellgeneration zur nächsten.
Während der Ruhephase (G0) und präsynthetischen Phase (G1) besitzt die Zelle einen diploiden Chromosomensatz (2c). In der Synthesephase (S) wird die DNA-Menge durch Replikation vermehrt. Die S-Phase endet mit Erreichen der prämitotischen Phase (G2M), in der die Zelle einen reduplizierten Chromosomenbestand (4c) und verdoppelten DNA-Gehalt aufweist. In der nachfolgenden, kurzdauernden Mitosephase (M) kommt es zur gleichmäßigen Aufteilung der reduplizierten Chromosomen auf zwei Tochterzellen, die dann jeweils wieder einen diploiden DNA Gehalt zeigen und sich in der G01-Phase befinden, so daß der Zellzyklus neu beginnen kann.
Für die Zellzyklusanalyse wurden KB/HeLa Zellen mit den Testsubstanzen in unterschiedlichen Konzentrationen (0.1-1000 nM) 24 Stunden bei 37°C behandelt.
Der prozentuale Anteil der in der G2/M Phase des Zellzyklus arrettierten Zellen nach Behandlung mit Referenz- oder ausgewählten Testsubstanzen ist in der nachfolgenden Tabelle 4 dargestellt. Die Ergebnisse wurden mit einer speziellen Analysesoftware (ModFit™) ausgewertet.

U-937 Zelllinie = assay: CDD plus nucleosome ELISA test (apoptosis detection); type: cell-based; settings: U-937, 1nM-10µM, 24 h treatment; for Nucleosomen im Zelllysat: cell lysate; for Nucleosomen im Zellkulturüberstand: culture supernatant
Source text: Die Kernfragmentierung ist eine Spätfolge apoptotischer Prozesse. Die dabei zu beobachtenden Veränderungen lassen sich auf durch Endonukleasen gespaltene DNA-Stränge und daraus resultierende Fragmentierung in Nucleosomen Partikel zurückführen.
Zum Nachweis der Nucleosomen Partikel wurde der von der Firma Roche Molecular Biochemicals beschriebene CDD^plus Nucleosomen ELISA Test eingesetzt. Hierzu untersuchte man die Verbindungen 1 und 2 an der U-937 Zelllinie bei unterschiedlichen Konzentrationen (1nM-10µM, 24 h Behandlung). (s. Figur 5 und Figur 6)

[1] = system: Doxorubicin-resistente P388; assay: XTT proliferation assay, doxorubicin-resistant P388; type: cell-based, murine; settings: Mus musculus
Source text: (§1) Die Substanzen 1, 2, 4, 9, 11, 12 , 13 und 15 wurden in einem Proliferationstest an etablierten Tumorzelllinien auf ihre anti-proliferative Aktivität hin untersucht (D.A. Scuderio et al. Cancer Res. 1988, 48, 4827-4833). Der verwendete Test bestimmt die zelluläre Dehydrogenase-Aktivität und ermöglicht eine Bestimmung der Zellvitalität und indirekt der Zellzahl. Bei den verwendeten Zelllinien handelt es sich um die humane Cervixkarzinom Zelllinie KB/HeLa (ATCC CCL17), die ovariale Adenokarzinomzelllinie SKOV-3 (ATCC HTB77), die humane Glioblastom Zelllinie SF-268 (NCI 503138) und die Lungenkarzinom Zelllinie NCI-H460 (NCI 503473). Tabelle 1:
(§2) Zur weiteren Charakterisierung wurden die Substanzen 1, 2, 4 und 11 gegenüber multi drug resistenten Zelllinien im Vergleich zu den nicht-resistenten Wildtypzelllinien untersucht.
(§3) Bei den untersuchten Zelllinien handelt es sich um die murine L1210, die akute myeloische Leukaemie Zelllinie LT12 und um die resistenten Linien L1210/mdr und LT12/mdr. Außerdem wurden die murine P388 Zelllinie (methyl-cholanthreneinduced lymphoid neoplasm) sowie die Doxorubicin-resistente P388 als Testsysteme herangezogen.

L1210VCR = assay: XTT proliferation assay, resistant L1210; type: cell-based, murine; settings: Mus musculus
Source text: as §1, §2, §3

human Topoisomerase II = human Topoisomerase II (Homo sapiens, UniProt P11388); assay: pRYG relaxation assay for topoisomerase II activity; type: biochemical; settings: compound 1 at 100, 31.6 and 10 µM; reference compounds at 316 and 100 µM
human Topoisomerase II, sequence (P11388 whole entry): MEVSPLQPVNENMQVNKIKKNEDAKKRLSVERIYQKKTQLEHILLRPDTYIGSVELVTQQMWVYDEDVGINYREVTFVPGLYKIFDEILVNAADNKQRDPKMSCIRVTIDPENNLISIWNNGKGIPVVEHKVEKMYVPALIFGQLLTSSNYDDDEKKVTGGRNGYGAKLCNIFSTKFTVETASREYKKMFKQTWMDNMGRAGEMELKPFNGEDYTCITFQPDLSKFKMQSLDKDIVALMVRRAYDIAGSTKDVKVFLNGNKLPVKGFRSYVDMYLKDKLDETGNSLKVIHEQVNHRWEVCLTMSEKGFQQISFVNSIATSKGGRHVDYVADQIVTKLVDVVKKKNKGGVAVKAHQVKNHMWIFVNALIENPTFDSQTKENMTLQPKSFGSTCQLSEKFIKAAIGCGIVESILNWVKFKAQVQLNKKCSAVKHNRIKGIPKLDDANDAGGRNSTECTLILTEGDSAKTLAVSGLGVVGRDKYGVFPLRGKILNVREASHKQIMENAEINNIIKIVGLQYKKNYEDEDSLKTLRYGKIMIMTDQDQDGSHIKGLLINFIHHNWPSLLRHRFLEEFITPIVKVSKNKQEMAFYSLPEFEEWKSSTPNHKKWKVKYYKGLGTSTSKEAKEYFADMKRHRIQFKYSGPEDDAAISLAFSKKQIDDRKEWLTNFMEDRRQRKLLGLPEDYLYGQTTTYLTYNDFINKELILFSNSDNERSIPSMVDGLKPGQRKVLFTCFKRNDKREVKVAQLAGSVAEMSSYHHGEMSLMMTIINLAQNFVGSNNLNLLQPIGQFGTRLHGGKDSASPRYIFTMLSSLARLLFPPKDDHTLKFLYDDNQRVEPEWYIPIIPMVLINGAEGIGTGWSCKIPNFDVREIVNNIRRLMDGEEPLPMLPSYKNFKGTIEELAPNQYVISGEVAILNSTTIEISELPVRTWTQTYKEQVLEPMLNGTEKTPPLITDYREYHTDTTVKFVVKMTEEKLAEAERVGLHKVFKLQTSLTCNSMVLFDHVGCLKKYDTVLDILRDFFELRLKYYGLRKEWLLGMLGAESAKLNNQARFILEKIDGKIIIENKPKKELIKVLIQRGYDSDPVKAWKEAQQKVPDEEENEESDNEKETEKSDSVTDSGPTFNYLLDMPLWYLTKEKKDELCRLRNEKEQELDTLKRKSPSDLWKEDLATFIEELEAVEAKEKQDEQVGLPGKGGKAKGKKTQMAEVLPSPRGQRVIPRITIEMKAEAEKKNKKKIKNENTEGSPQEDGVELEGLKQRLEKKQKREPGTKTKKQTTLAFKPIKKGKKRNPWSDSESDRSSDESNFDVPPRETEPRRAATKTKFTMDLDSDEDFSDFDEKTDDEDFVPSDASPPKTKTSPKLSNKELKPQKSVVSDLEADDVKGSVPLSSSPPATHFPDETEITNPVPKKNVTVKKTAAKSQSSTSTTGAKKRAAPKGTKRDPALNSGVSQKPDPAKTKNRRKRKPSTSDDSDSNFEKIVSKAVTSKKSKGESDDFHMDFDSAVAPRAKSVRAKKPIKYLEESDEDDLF
Protocol: Mit diesem Relaxationsassay konnte zusätzlich die inhibitorische Eigenschaft der erfindungsgemäßen Verbindungen auf Topoisomerase II gezeigt werden. Die Testung der erfindungsgemäßen Verbindung 1 erfolgte hierbei bei drei unterschiedlichen Konzentrationen (100, 31.6 und 10 µM). Zum Vergleich setzte man die Referenzverbindungen m-Amsacrin, Paclitaxel (Taxol) und Vincristine bei Konzentrationen von 316 und 100µM ein.
Zu 1µL vorgelegter Testsubstanz (20fach konzentriert in 100% DMSO) werden 2µL 10x Assay Puffer, 0,5µL pRYG DNA (125ng), 0,5µL human Topoisomerase II (1 unit) und 16µL H2O pipettiert und gemischt. Die Reaktionsansätze werden in den auf 37°C vorgeheizten Heizblock gestellt und 30min bei 37°C inkubiert. Die Inkubation wird nach Zugabe von 4µL 5x Stop Puffer abgestoppt. Danach werden 10µL des Ansatzes auf ein 1,2% Agarosegel mit 0,25µg/mL Ethidiumbromid aufgetragen und 2,5h bei 100V aufgetrennt. Zum Schluß wird das Gel unter UV Anregung fotografiert (s. Figur 3). Die Quantifizierung der Inhibierung der pRYG Relaxation erfolgt mit der GelPro®Analyzer Software (s. Figur 4).

LT12/mdr = assay: XTT proliferation assay, resistant LT12/mdr; type: cell-based; settings: Rattus norvegicus
Source text: as §1, §2, §3

[2] = molecular target: humaner DNA-Topoisomerase II (Homo sapiens, UniProt P11388); assay: kDNA decatenation assay for topoisomerase II activity; type: biochemical; settings: compound 1 at 100, 31.6 and 10 µM; reference compounds at 100 µM
humaner DNA-Topoisomerase II, sequence (P11388 whole entry): as above
Protocol: In diesem von P. Arimondo (Anti-Cancer Drug Design 2000, 15 (6), 413-421) beschriebenen Assay wird kDNA mit humaner DNA-Topoisomerase II in Abwesenheit oder Gegenwart der Testverbindungen behandelt. Die Testung der erfindungsgemäßen Verbindung 1 erfolgte hierbei bei drei unterschiedlichen Konzentrationen (100, 31.6 und 10 µM). Zum Vergleich setzte man eine Positivkontrolle und die Referenzverbindungen m-Amsacrin (m-Amsa), Paclitaxel (Taxol) und Vincristine bei einer jeweiligen Konzentration von 100µM ein.
Zu 1µL vorgelegter Testsubstanz (20fach konzentriert in 100% DMSO) werden 2µL 10x Assay Puffer, 1µL kDNA (200ng), 0,5µL human Topoisomerase II (1unit) und 15,5µL H2O pipettiert und gemischt.
Die Reaktionsansätze werden in den auf 37°C vorgeheizten Heizblock gestellt und 10min bei 37°C inkubiert. Die Inkubation wird nach Zugabe von 4µL 5x Stop Puffer gestoppt und nachfolgend die Substanz mit CIA extrahiert. Danach werden 20µL des Überstandes auf ein 1 % Agarosegel mit 0,25µg/mL Ethidiumbromid aufgetragen und 1 h bei 100V aufgetrennt. Zum Schluss wird das Gel unter UV-Anregung fotografiert (s. Figur 1). Die Quantifizierung der Inhibierung der Decatenation von kDNA erfolgt mit der GelPro®Analyzer Software (s. Figur 2)

[3] = type: physicochemical; settings: water, at most 1 % DMSO added
Source text: Die Bestimmung der Sättigungslöslichkeit in Wasser für die Verbindungen 1, 2, 10 und 14 erfolgte wie nachfolgend beschrieben. Zum Anlösen der Substanzen und um die Benetzung der Proben zu verbessern, wurde maximal 1 % DMSO zugesetzt. Zur Überprüfung des Gehaltes wurde eine HPLC-UV-Methode angewandt. Die Ergebnisse sind in der nachfolgenden Tabelle 5 zusammengefasst: Tabelle 5: […]

Melanom, MEXF462 = type: in vivo, Mäuse; settings: 80 mg/kg p.o.; day 18
Source text: Die in vivo Aktivität und Verträglichkeit der erfindungsgemäßen Verbindung 2 wurde im Vergleich zu den Substanzen 10 und 14 in einem humanen Xenograft-Modell (Melanom, MEXF462) überprüft. Die Ergebnisse sind in der nachfolgenden Tabelle 6 zusammengefasst: in vivo Aktivitäten von Verbindung 2, 10 and 14 (Melanom; MEXF462) Tabelle 6: […]

[4] = system: humane Glioblastom Zelllinie SF-268 (NCI 503138); assay: XTT proliferation assay (cytotoxicity test), SF-268; type: cell-based; settings: Homo sapiens, read-out: XTT Proliferationsassay, EC50
Source text: as §1, with “503473).” for “503473). Tabelle 1:”

[5] = system: Lungenkarzinom Zelllinie NCI-H460 (NCI 503473); assay: XTT proliferation assay (cytotoxicity test), NCI-H460; type: cell-based; settings: Homo sapiens, NCl-H460, read-out: XTT Proliferationsassay, EC50
Source text: as §1, with “503473).” for “503473). Tabelle 1:”

[6] = system: humane Cervixkarzinom Zelllinie KB/HeLa (ATCC CCL17); assay: XTT proliferation assay (cytotoxicity test), KB/HeLa; type: cell-based; settings: Homo sapiens, read-out: XTT Proliferationsassay, EC50
Source text: as §1, with “503473).” for “503473). Tabelle 1:”

[7] = system: akute myeloische Leukaemie Zelllinie LT12; assay: XTT proliferation assay, LT12 wild type; type: cell-based; settings: Rattus norvegicus, LT12, read-out: XTT Proliferationsassay, EC50
Source text: as §1, §2, §3

Mamma, MAXF857 = type: in vivo, Mäuse; settings: 80 mg/kg p.o.
Source text: Die in vivo Aktivität und Verträglichkeit der erfindungsgemäßen Verbindung 2 wurde im Vergleich zu der Substanz 10 in einem weiteren humanen Xenograft-Modell (Mamma, MAXF857) überprüft. Die Ergebnisse werden in der nächsten Tabelle gezeigt: Effect of 2 and 10 on the Mammary Cancer MAXF857 Tabelle 7: […]

[8] = system: murine P388 Zelllinie (methyl-cholanthreneinduced lymphoid neoplasm); assay: XTT proliferation assay, P388 wild type; type: cell-based; settings: Mus musculus, P388, read-out: XTT Proliferationsassay, EC50
Source text: as §1, §2, §3

murine L1210 = assay: XTT proliferation assay, L1210 wild type; type: cell-based; settings: Mus musculus, L1210, read-out: XTT Proliferationsassay, EC50
Source text: as §1, §2, §3

[9] = system: ovariale Adenokarzinomzelllinie SKOV-3 (ATCC HTB77); assay: XTT proliferation assay (cytotoxicity test), SKOV-3; type: cell-based; settings: Homo sapiens, SK-OV-3; SKOV3; read-out: XTT Proliferationsassay, EC50
Source text: as §1, with “503473).” for “503473). Tabelle 1:”

O=C(Nc1cnc2nccnc2c1)C(=O)c1cn(Cc2ccc(Cl)cc2)c2ccccc12 [Verbindung 1, 2-[1-(4-Chlor-benzyl)-1H-indol-3-yl]-2-oxo-N-pyrido[2,3-b]pyrazin-7-yl-acetamid]
Hemmung der Tubulin-Polymerisation, EC50 (Rindertubulin; tubulin with 30% associated proteins (MAPs), mean of two independent experiments): 0.71 µg/mL | Hemmwirkung auf die Polymerisation von Tubulin (Rindertubulin; verbal summary of Table 3): sehr potente Hemmwirkung | EC50 (KB/HeLa Zellen; KB/HeLa cells, 0.1-1000 nM, 24 h at 37°C): 25.2 nM | Nucleosomen im Zelllysat (U-937 Zelllinie): konzentrationsabhängiger Anstieg | Nucleosomen im Zellkulturüberstand (U-937 Zelllinie): kein signifikanter Anstieg | EC50 ([1]; P388, P388ADR, read-out: XTT Proliferationsassay, EC50): 0.019 µg/mL (≈ 0.043 µM) | EC50 (L1210VCR; L1210, L1210VCR, read-out: XTT Proliferationsassay, EC50): 0.021 µg/mL (≈ 0.0475 µM) | Hemmung der Topoisomerase II (Inhibierung der pRYG Relaxation) (human Topoisomerase II): signifikante Hemmung | EC50 (LT12/mdr; LT12, LT12mdr, read-out: XTT Proliferationsassay, EC50): 0.017 µg/mL (≈ 0.0385 µM) | Hemmung der Topoisomerase II (Inhibierung der Decatenation von kDNA) [2]: signifikante Hemmung | Sättigungslöslichkeit in Wasser [3]: 25.0 µg/mL

CC(=O)N(C(=O)C(=O)c1cn(Cc2ccc(Cl)cc2)c2ccccc12)c1ccc2ncccc2c1 [Verbindung 2, N-{2-[1-(4-Chlor-benzyl)-1H-indol-3-yl]-2-oxo-acetyl}-N-chinolin-6-yl-acetamid]
Optimale T/C % (Tag) (Melanom, MEXF462): 0.0% | EC50 [4]: 0.166 µg/mL (≈ 0.344 µM) | EC50 (KB/HeLa Zellen; HeLa, 24 h): 125 nM | EC50 [5]: 0.168 µg/mL (≈ 0.349 µM) | EC50 [6]: 0.202 µg/mL (≈ 0.419 µM) | EC50 [7]: 0.225 µg/mL (≈ 0.467 µM) | Optimale T/C % (Tag) (Mamma, MAXF857; day 10): 9.6% (10) | Todesfällen (Mamma, MAXF857; dead animals / total): 0/6 Mäuse | Nucleosomen im Zelllysat (U-937 Zelllinie): konzentrationsabhängiger Anstieg | Nucleosomen im Zellkulturüberstand (U-937 Zelllinie): kein signifikanter Anstieg | EC50 ([1]; P388, read-out: XTT Proliferationsassay, EC50): 0.215 µg/mL (≈ 0.446 µM) | EC50 (L1210VCR; L1210, read-out: XTT Proliferationsassay, EC50): 0.558 µg/mL (≈ 1.16 µM) | EC50 [8]: 0.224 µg/mL (≈ 0.465 µM) | EC50 (murine L1210): 0.206 µg/mL (≈ 0.427 µM) | EC50 [9]: 0.123 µg/mL (≈ 0.255 µM) | EC50 (LT12/mdr; LT12, read-out: XTT Proliferationsassay, EC50): 0.272 µg/mL (≈ 0.564 µM) | Sättigungslöslichkeit in Wasser [3]: 28.5 µg/mL
